Target: T1, human capsaicin receptor (Homo sapiens, UniProt Q8NER1)
T1 construct: expressed in transfected cells
Assay: Calcium mobilization assay, determination of antagonist activity (Example 6)
Type: cell-based
Conditions: cells expressing human capsaicin receptor, capsaicin-induced fluorescence response; read-out: IC50
Experimental: A cDNA encoding full length human capsaicin receptor (SEQ ID NO:1, 2 or 3 of U.S. Pat. No. 6,482,611) is subcloned in the plasmid pBK-CMV (Stratagene, La Jolla, Calif.) for recombinant expression in mammalian cells.
Human embryonic kidney (HEK293) cells are transfected with the pBK-CMV expression construct encoding the full length human capsaicin receptor using standard methods. The transfected cells are selected for two weeks in media containing G418 (400 μg/ml) to obtain a pool of stably transfected cells. Independent clones are isolated from this pool by limiting dilution to obtain clonal stable cell lines for use in subsequent experiments.
Cells transfected with expression plasmids (as described in Example 4) and thereby expressing human capsaicin receptor are seeded and grown to 70-90% confluency in FALCON black-walled, clear-bottomed 96-well plates (#3904, BECTON-DICKINSON, Franklin Lakes, N.J.). The culture medium is emptied from the 96 well plates and FLUO-3 AM calcium sensitive dye (Molecular Probes, Eugene, Oreg.) is added to each well (dye solution: 1 mg FLUO-3 AM, 440 μL DMSO and 440 μl 20% pluronic acid in DMSO, diluted 1:250 in Krebs-Ringer HEPES (KRH) buffer (25 mM HEPES, 5 mM KCl, 0.96 mM NaH2PO4, 1 mM MgSO4, 2 mM CaCl2, 5 mM glucose, 1 mM probenecid, pH 7.4), 50 μl diluted solution per well). Plates are covered with aluminum foil and incubated at 37° C. for 1-2 hours in an environment containing 5% CO2. After the incubation, the dye is emptied from the plates, and the cells are washed once with KRH buffer, and resuspended in KRH buffer.
To measure the ability of a test compound to agonize or antagonize a calcium mobilization response in cells expressing capsaicin receptors to capsaicin or other vanilloid agonist, the EC50 of the agonist capsaicin is first determined. An additional 20 μl of KRH buffer and 1 μl DMSO is added to each well of cells, prepared as described above. 100 μl capsaicin in KRH buffer is automatically transferred by the FLIPR instrument to each well. Capsaicin-induced calcium mobilization is monitored using either FLUOROSKAN ASCENT (Labsystems; Franklin, Mass.) or FLIPR (fluorometric imaging plate reader system; Molecular Devices, Sunnyvale, Calif.) instruments. Data obtained between 30 and 60 seconds after agonist application are used to generate an 8-point concentration response curve, with final capsaicin concentrations of 1 nM to 3 μM. KALEIDAGRAPH software (Synergy Software, Reading, Pa.) is used to fit the data to the equation: y=a*(1/(1+(b/x)^c)) to determine the 50% excitatory concentration (EC50) for the response. In this equation, y is the maximum fluorescence signal, x is the concentration of the agonist or antagonist (in this case, capsaicin), a is the Emax, b corresponds to the EC50 value and c is the Hill coefficient. Determination of Agonist Activity
Test compounds are dissolved in DMSO, diluted in 20 μl KRH buffer so that the final concentration of test compounds in the assay well is between 1 μM and 5 μM, and added to cells prepared as described above. The 96 well plates containing prepared cells and test compounds are incubated in the dark, at room temperature for 0.5 to 6 hours. It is important that the incubation not continue beyond 6 hours. Just prior to determining the fluorescence response, 100 μl capsaicin in KRH buffer at twice the EC50 concentration determined as described above is automatically added by the FLIPR instrument to each well of the 96 well plate for a final sample volume of 200 μl and a final capsaicin concentration equal to the EC50. The final concentration of test compounds in the assay wells is between 1 μM and 5 μM. […] The concentration of antagonist required to provide a 50% decrease, relative to the response observed in the presence of capsaicin and without antagonist, is the IC50 for the antagonist, and is preferably below 1 micromolar, 100 nanomolar, 10 nanomolar or 1 nanomolar.

T1 sequence (Q8NER1 whole entry): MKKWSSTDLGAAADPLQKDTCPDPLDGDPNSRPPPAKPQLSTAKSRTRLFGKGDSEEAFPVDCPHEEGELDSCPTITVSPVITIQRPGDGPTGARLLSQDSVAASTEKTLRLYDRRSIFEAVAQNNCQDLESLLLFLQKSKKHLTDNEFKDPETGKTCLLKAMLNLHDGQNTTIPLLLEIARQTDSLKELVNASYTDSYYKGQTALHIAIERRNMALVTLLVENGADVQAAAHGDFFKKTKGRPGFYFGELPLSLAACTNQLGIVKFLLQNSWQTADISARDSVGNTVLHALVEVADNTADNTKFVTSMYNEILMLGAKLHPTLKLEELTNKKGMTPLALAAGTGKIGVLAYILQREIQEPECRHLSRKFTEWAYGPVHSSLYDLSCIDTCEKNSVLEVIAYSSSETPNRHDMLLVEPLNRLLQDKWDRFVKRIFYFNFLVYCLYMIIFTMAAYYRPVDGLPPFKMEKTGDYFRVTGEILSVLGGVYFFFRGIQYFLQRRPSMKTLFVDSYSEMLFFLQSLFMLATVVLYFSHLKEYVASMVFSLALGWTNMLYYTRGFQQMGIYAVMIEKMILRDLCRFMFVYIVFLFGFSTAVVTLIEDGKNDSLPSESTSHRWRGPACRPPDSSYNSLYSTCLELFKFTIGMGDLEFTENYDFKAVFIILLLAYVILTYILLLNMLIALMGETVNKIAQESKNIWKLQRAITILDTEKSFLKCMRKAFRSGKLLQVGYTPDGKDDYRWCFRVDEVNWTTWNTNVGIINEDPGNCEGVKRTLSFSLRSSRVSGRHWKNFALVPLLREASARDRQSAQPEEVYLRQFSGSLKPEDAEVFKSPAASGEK

IC50, ≤ 100 nM:
Cn1cnc2c(=O)n(-c3ccc(Cl)cc3)c(Oc3c(F)cc(F)cc3F)nc21 [Compound 8, 1-(4-chlorophenyl)-9-methyl-2-(2,4,6-trifluorophenoxy)-1,9-dihydro-6H-purin-6-one]
CCn1cnc2c(=O)n(-c3ccc(F)cc3)c(Oc3c(F)cc(F)cc3F)nc21 [Compound 9, 9-ethyl-1-(4-fluorophenyl)-2-(2,4,6-trifluorophenoxy)-1,9-dihydro-6H-purin-6-one]
Cn1cnc2c(=O)n(-c3ccc(Cl)cc3)c(Oc3ccc(F)c(F)c3F)nc21 [Compound 10, 1-(4-chlorophenyl)-9-methyl-2-(2,3,4-trifluorophenoxy)-1,9-dihydro-6H-purin-6-one]
CCn1cnc2c(=O)n(-c3ccc(F)cc3)c(Oc3ccc(F)c(F)c3F)nc21 [Compound 11, 9-ethyl-1-(4-fluorophenyl)-2-(2,3,4-trifluorophenoxy)-1,9-dihydro-6H-purin-6-one]
Cn1cnc2c(=O)n(-c3ccc(F)cc3)c(Oc3c(F)cc(F)cc3F)nc21 [Compound 12, 1-(4-fluorophenyl)-9-methyl-2-(2,4,6-trifluorophenoxy)-1,9-dihydro-6H-purin-6-one]
Cn1cnc2c(=O)n(-c3ccc(F)cc3)c(Oc3cc(F)cc(F)c3F)nc21 [Compound 20, 1-(4-fluorophenyl)-9-methyl-2-(2,3,5-trifluorophenoxy)-1,9-dihydro-6H-purin-6-one]
Cn1cnc2c(=O)n(-c3ccc(Cl)cc3)c(Oc3cccc(F)c3F)nc21 [Compound 21, 1-(4-chlorophenyl)-2-(2,3-difluorophenoxy)-9-methyl-1,9-dihydro-6H-purin-6-one]
Cn1cnc2c(=O)n(-c3ccc(F)cc3)c(Oc3ccc(F)cc3Cl)nc21 [Compound 22, 2-(2-chloro-4-fluorophenoxy)-1-(4-fluorophenyl)-9-methyl-1,9-dihydro-6H-purin-6-one]
Cn1cnc2c(=O)n(-c3ccc(Cl)cc3)c(Oc3ccc(F)cc3Cl)nc21 [Compound 23, 2-(2-chloro-4-fluorophenoxy)-1-(4-chlorophenyl)-9-methyl-1,9-dihydro-6H-purin-6-one]
Cn1cnc2c(=O)n(-c3ccc(F)cc3)c(Oc3c(F)ccc(F)c3F)nc21 [Compound 24, 1-(4-fluorophenyl)-9-methyl-2-(2,3,6-trifluorophenoxy)-1,9-dihydro-6H-purin-6-one]
Cn1cnc2c(=O)n(-c3ccc(Cl)cc3)c(Oc3c(F)ccc(F)c3F)nc21 [Compound 25, 1-(4-chlorophenyl)-9-methyl-2-(2,3,6-trifluorophenoxy)-1,9-dihydro-6H-purin-6-one]
CCn1cnc2c(=O)n(-c3ccc(F)cc3)c(Oc3cc(F)cc(F)c3F)nc21 [Compound 26, 9-ethyl-1-(4-fluorophenyl)-2-(2,3,5-trifluorophenoxy)-1,9-dihydro-6H-purin-6-one]
Cn1cnc2c(=O)n(-c3ccc(Cl)cc3)c(Oc3cc(F)cc(F)c3F)nc21 [Compound 27, 1-(4-chlorophenyl)-9-methyl-2-(2,3,5-trifluorophenoxy)-1,9-dihydro-6H-purin-6-one]
Cn1cnc2c(=O)n(-c3ccc(Cl)cc3)c(Oc3ccc(C#N)c(F)c3F)nc21 [Compound 28, 4-{[1-(4-chlorophenyl)-9-methyl-6-oxo-6,9-dihydro-1H-purin-2-yl]oxy}-2,3-difluorobenzonitrile]
Cn1cnc2c(=O)n(-c3ccc(F)cc3)c(Oc3ccc(C#N)c(F)c3F)nc21 [Compound 29, 2,3-difluoro-4-{[1-(4-fluorophenyl)-9-methyl-6-oxo-6,9-dihydro-1H-purin-2-yl]oxy}benzonitrile]
Cn1cnc2c(=O)n(-c3ccc(Cl)cc3)c(Oc3cc(F)c(F)c(F)c3)nc21 [Compound 30, 1-(4-chlorophenyl)-9-methyl-2-(3,4,5-trifluorophenoxy)-1,9-dihydro-6H-purin-6-one]
O=c1c2ncccc2nc(Oc2ccc(F)cc2F)n1-c1ccc(F)cc1 [Compound 31, 2-(2,4-difluorophenoxy)-3-(4-fluorophenyl)pyrido[3,2-d]pyrimidin-4(3H)-one]
O=c1c2ncccc2nc(Oc2ccc(F)c(F)c2F)n1-c1ccc(F)cc1 [Compound 32, 3-(4-fluorophenyl)-2-(2,3,4-trifluorophenoxy)pyrido[3,2-d]pyrimidin-4(3H)-one]
O=c1c2ncsc2nc(Oc2ccc(F)c(F)c2F)n1-c1ccc(F)cc1 [Compound 33, 6-(4-fluorophenyl)-5-(2,3,4-trifluorophenoxy)[1,3]thiazolo[5,4-d]pyrimidin-7(6H)-one]
O=c1c2ncsc2nc(Oc2cccc(F)c2F)n1-c1ccc(F)cc1 [Compound 34, 5-(2,3-difluorophenoxy)-6-(4-fluorophenyl)[1,3]thiazolo[5,4-d]pyrimidin-7(6H)-one]
O=c1c2ncsc2nc(Oc2cc(F)c(F)cc2F)n1-c1ccc(F)cc1 [Compound 35, 6-(4-fluorophenyl)-5-(2,4,5-trifluorophenoxy)[1,3]thiazolo[5,4-d]pyrimidin-7(6H)-one]
O=c1c2ncsc2nc(Oc2cc(F)cc(F)c2F)n1-c1ccc(F)cc1 [Compound 36, 6-(4-fluorophenyl)-5-(2,3,5-trifluorophenoxy)[1,3]thiazolo[5,4-d]pyrimidin-7(6H)-one]
O=c1c2ncsc2nc(Oc2cc(F)c(F)c(F)c2)n1-c1ccc(F)cc1 [Compound 37, 6-(4-fluorophenyl)-5-(3,4,5-trifluorophenoxy)[1,3]thiazolo[5,4-d]pyrimidin-7(6H)-one]
O=c1c2ncsc2nc(Oc2ccc(Cl)cc2F)n1-c1ccc(F)cc1 [Compound 38, 5-(4-chloro-2-fluorophenoxy)-6-(4-fluorophenyl)[1,3]thiazolo[5,4-d]pyrimidin-7(6H)-one]
Cn1cnc2c(=O)n(-c3ccc(Cl)cc3)c(Oc3cccc(C(F)(F)F)c3F)nc21 [Compound 42, 1-(4-chlorophenyl)-2-[2-fluoro-3-(trifluoromethyl)phenoxy]-9-methyl-1,9-dihydro-6H-purin-6-one]
Cn1cnc2c(=O)n(-c3ccc(F)cc3)c(Oc3cccc(C(F)(F)F)c3F)nc21 [Compound 43, 1-(4-fluorophenyl)-2-[2-fluoro-3-(trifluoromethyl)phenoxy]-9-methyl-1,9-dihydro-6H-purin-6-one]
O=c1c2ncsc2nc(Oc2cc(F)cc(C(F)(F)F)c2)n1-c1ccc(F)cc1 [Compound 44, 6-(4-fluorophenyl)-5-[3-fluoro-5-(trifluoromethyl)phenoxy][1,3]thiazolo[5,4-d]pyrimidin-7(6H)-one]

Same assay, conditions: cells expressing human capsaicin receptor, capsaicin-induced fluorescence response; read-out: IC50 determined as described in Example 6

IC50, ≤ 100 nM:
Cn1cnc2c(=O)n(-c3ccc(Br)cc3)c(Oc3ccc(F)c(F)c3F)nc21 [Compound 1, 1-(4-Bromophenyl)-9-methyl-2-(2,3,4-trifluorophenoxy)-1,9-dihydro-6H-purin-6-one]
Cn1cnc2c(=O)n(-c3ccc(Cl)nc3)c(Oc3cc(F)c(F)c(F)c3)nc21 [Compound 6, 1-(6-Chloropyridin-3-yl)-9-methyl-2-(3,4,5-trifluorophenoxy)-1H-purin-6(9H)-one]
Cn1cnc2c(=O)n(-c3ccc(C#N)nc3)c(Oc3cc(F)c(F)c(F)c3)nc21 [Compound 7, 5-(9-Methyl-6-oxo-2-(3,4,5-trifluorophenoxy)-6H-purin-1(9H)-yl)picolinonitrile]

Reference: patent US8759361B2, “2-phenoxy pyrimidinone analogues” (Neurogen Corporation, priority 2006, dated 2014)
